The results in this text go back to patent US20230398334A1, “COATED BALLOON CATHETER FOR TREATING ARTERIOVENOUS FISTULA AND METHODS OF USING SAME” (Alucent Biomedical, Inc., priority 2022, published 2023).

This assay deals with arteriovenous fistula (AVF). The assay can be described thus: Treatment of an AVF with the active agent (NVS treatment). It is filed as in vivo.

`NCCOCCOCCNc1ccc2c3c(cccc13)C(=O)N(CCOCCOCCN1C(=O)c3cccc4c(NCCOCCOCCN)ccc(c34)C1=O)C2=O` [Compound of Formula (I), 2,2′-((ethane-1,2-diylbis(oxy))bis(ethane-2,1-diyl))bis(6-((2-(2-(2-aminoethoxy)ethoxy)ethyl)amino)-1H-benzo[de]isoquinoline-1,3(2H)-dione)]: the “AVF open lumen area” value was “significant increase” and the “area of neointimal hyperplasia” value was “without significantly affecting”.
